Measured values: patent publication US20060069132A1, “Azolecarboxamide herbicides” (priority 2004, published 2006)
Like-named read-outs stand apart in the source and are kept apart here.

Legend:
[1] = test system: goosegrass; assay: Test C pre-/postemergence herbicide test; type: in vivo, Eleusine indica
In short: (§1)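 Visual injury scores run from 0 (no effect) to 100 (complete control), assessed relative to untreated controls 12 to 14 days after treatment in the greenhouse. Chemicals were formulated in a non-phytotoxic solvent mixture with surfactant and applied to soil after planting or to emerged plants at the 1- to 4-leaf stage.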

[2] = test system: woolly cupgrass; assay: Test C pre-/postemergence herbicide test; type: in vivo, Eriochloa villosa
In short: as §1

[3] = test system: bermudagrass; assay: Test C pre-/postemergence herbicide test; type: in vivo, Cynodon dactylon
In short: as §1

[4] = test system: redroot pigweed; assay: Test A pre-/postemergence herbicide test; type: in vivo, Amaranthus retroflexus; details: for pest or weed control at 500 g/ha / pest or weed control at 2000 g/ha: Amaranthus retroflexus, 240 h
In short: (§2)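 Pre: seeded sandy loam, directed soil spray, compound in non-phytotoxic solvent + surfactant. Post: 1–2-leaf plants (2–10 cm), sprayed to runoff. Greenhouse ~10 d; visual injury vs untreated, 0–100 scale.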

[5] = test system: pigweed; assay: Test C pre-/postemergence herbicide test; type: in vivo, Amaranthus retroflexus
In short: as §1

[6] = test system: large crabgrass; assay: Test C pre-/postemergence herbicide test; type: in vivo, Digitaria sanguinalis
In short: as §1

[7] = test system: giant foxtail; assay: Test C pre-/postemergence herbicide test; type: in vivo, Setaria faberi
In short: as §1

[8] = test system: ducksalad; assay: Test C flooded paddy test; type: in vivo, Heteranthera limosa
[9] = test system: giant foxtail; assay: Test A pre-/postemergence herbicide test; type: in vivo, Setaria faberi; details: for pest or weed control at 500 g/ha / pest or weed control at 2000 g/ha: Setaria faberi, 240 h
In short: as §2

[10] = Preemergence, 500 g ai/ha, scale 0 to 100, 0 no effect, 100 complete control
[11] = 62 g ai/ha, preemergence, scale 0 to 100
[12] = 125 g ai/ha, scale 0 (no effect) to 100 (complete control), visual, 12 to 14 days, preemergence
[13] = 250 g ai/ha, scale 0-100, preemergence
[14] = 500 g ai/ha, scale 0 to 100 (0 no effect, 100 complete control), visual, 12 to 14 days, preemergence
[15] = Postemergence, 500 g ai/ha, 0 to 100 scale, 0 no effect, 100 complete control
[16] = Postemergence, 2000 g ai/ha, 0 to 100 scale, 0 no effect, 100 complete control
[17] = Preemergence, 2000 g ai/ha, visual rating, 0 to 100 scale (0 no effect, 100 complete control)
[18] = preemergence, 500 g ai/ha, visual injury, 0 to 100 scale (0 no effect, 100 complete control)

In the case of `CCNC(=O)c1ccc(F)c(NC(=O)c2cc(C(C)(C)C)nn2CC)c1` [Compound 2, 3-(1,1-dimethylethyl)-1-ethyl-N-[5-[(ethylamino)carbonyl]-2-fluorophenyl]-1H-pyrazole-5-carboxamide], the “Plant response rating (0 = no effect, 100 = complete control), Goosegrass” value ([1]; 62 g ai/ha, preemergence) is reported as 90, the pest or weed control at 125 g/ha ([1]; Eleusine indica, pre-emergence, 312 h, 125 g ai/ha, scale 0-100, read-out: Plant response rating, Goosegrass) is reported as 95% and the pest or weed control at 250 g/ha ([1]; Eleusine indica, pre-emergence, 312 h, 250 g ai/ha, scale 0 to 100 (0 no effect, 100 complete control), visual, 12 to 14 days, read-out: Plant response rating, Goosegrass) is reported as 95%. For the same compound, the “Goosegrass plant response rating” value [1, 10] was 100, the “Plant response rating (0 = no effect, 100 = complete control), Cupgrass, Woolly” value ([2]; 62 g ai/ha, preemergence) was 40 and the pest or weed control at 125 g/ha ([2]; Eriochloa villosa, pre-emergence, 312 h, 125 g ai/ha, scale 0-100, read-out: Plant response rating, Cupgrass, Woolly) was 60%. For the same compound, the pest or weed control at 250 g/ha ([2]; Eriochloa villosa, pre-emergence, 312 h, 250 g ai/ha, scale 0 to 100 (0 no effect, 100 complete control), visual, 12 to 14 days, read-out: Plant response rating, Cupgrass, Woolly) was 60%, the “Cupgrass, Woolly plant response rating” value [2, 10] was 80 and the “Plant response rating (0 = no effect, 100 = complete control), Bermudagrass” value ([3]; 62 g ai/ha, preemergence) was 85. It also gave a pest or weed control at 125 g/ha ([3]; Cynodon dactylon, pre-emergence, 312 h, 125 g ai/ha, scale 0-100, read-out: Plant response rating, Bermudagrass) of 90%, a pest or weed control at 250 g/ha ([3]; Cynodon dactylon, pre-emergence, 312 h, 250 g ai/ha, scale 0 to 100 (0 no effect, 100 complete control), visual, 12 to 14 days, read-out: Plant response rating, Bermudagrass) of 95% and a pest or weed control at 500 g/ha ([3]; Cynodon dactylon, pre-emergence, 312 h, Preemergence, 500 g ai/ha, scale 0 to 100, 0 no effect, 100 complete control, read-out: Bermudagrass plant response rating) of 95%. For the same compound, the pest or weed control at 500 g/ha ([4]; post-emergence, Postemergence, 500 g ai/ha, 0 to 100 scale, 0 no effect, 100 complete control, read-out: Plant response rating, Pigweed) was 100%, the pest or weed control at 2000 g/ha ([4]; post-emergence, Postemergence, 2000 g ai/ha, 0 to 100 scale, 0 no effect, 100 complete control, read-out: Plant response rating, Pigweed) was 100% and the pest or weed control at 500 g/ha ([4]; pre-emergence, Preemergence, 500 g ai/ha, visual rating, 0 to 100 scale (0 no effect, 100 complete control), read-out: Pigweed plant response rating) was 100%. For the same compound, the pest or weed control at 2000 g/ha ([4]; pre-emergence, Preemergence, 2000 g ai/ha, 0 to 100 scale, 0 no effect, 100 complete control, read-out: Pigweed plant response rating) was 100%, the “Plant response rating (0 = no effect, 100 = complete control), Pigweed” value ([5]; 62 g ai/ha, preemergence) was 95 and the pest or weed control at 250 g/ha ([5]; Amaranthus retroflexus, pre-emergence, 250 g ai/ha, scale 0 to 100 (0 no effect, 100 complete control), visual, 12 to 14 days, read-out: Plant response rating, Pigweed) was 95%. The “Pigweed plant response rating” value [5, 10] was 100, the “Plant response rating (0 = no effect, 100 = complete control), Crabgrass, Large” value ([6]; 62 g ai/ha, preemergence) was 95 and the pest or weed control at 125 g/ha ([6]; Digitaria sanguinalis, pre-emergence, 312 h, 125 g ai/ha, scale 0-100, read-out: Plant response rating, Crabgrass, Large) was 95%. The pest or weed control at 250 g/ha ([6]; Digitaria sanguinalis, pre-emergence, 312 h, 250 g ai/ha, scale 0 to 100 (0 no effect, 100 complete control), visual, 12 to 14 days, read-out: Plant response rating, Crabgrass, Large) was 100%, the “Crabgrass, Large plant response rating” value [6, 10] was 100 and the “Plant response rating (0 = no effect, 100 = complete control), Foxtail, Giant” value ([7]; 62 g ai/ha, preemergence) was 80. The “Foxtail, Giant plant response rating” value [7, 10] was 100, the pest or weed control at 125 g/ha ([7]; Setaria faberi, pre-emergence, 312 h, 125 g ai/ha, scale 0-100, read-out: Plant response rating, Foxtail, Giant) was 100% and the pest or weed control at 250 g/ha ([7]; Setaria faberi, pre-emergence, 312 h, 250 g ai/ha, scale 0 to 100 (0 no effect, 100 complete control), visual, 12 to 14 days, read-out: Plant response rating, Foxtail, Giant) was 100%. The pest or weed control at 62 g/ha ([8]; Heteranthera limosa, 62 g ai/ha, scale 0 to 100 (0 no effect, 100 complete control), read-out: Ducksalad plant response rating) was 80%, the pest or weed control at 125 g/ha ([8]; Heteranthera limosa, 125 g ai/ha, scale of 0 to 100, 0 is no effect, 100 is complete control, read-out: Ducksalad plant response rating) was 80% and the pest or weed control at 250 g/ha ([8]; Heteranthera limosa, 250 g ai/ha, visual rating after 12 to 14 days, scale 0 to 100 (0 no effect, 100 complete control), read-out: Plant response rating, Ducksalad) was 85%. For the same compound, the pest or weed control at 500 g/ha ([8]; Heteranthera limosa, 500 g ai/ha, visual rating after 12 to 14 days, scale 0 to 100 (0 no effect, 100 complete control), read-out: Plant response rating, Ducksalad) was 95%, the pest or weed control at 500 g/ha ([9]; post-emergence, Postemergence, 500 g ai/ha, 0 to 100 scale, 0 no effect, 100 complete control, read-out: Plant response rating, Foxtail, Giant) was 95% and the pest or weed control at 2000 g/ha ([9]; post-emergence, Postemergence, 2000 g ai/ha, 0 to 100 scale, 0 no effect, 100 complete control, read-out: Plant response rating, Foxtail, Giant) was 100%. For the same compound, the pest or weed control at 500 g/ha ([9]; pre-emergence, Preemergence, 500 g ai/ha, visual rating, 0 to 100 scale (0 no effect, 100 complete control), read-out: Foxtail, Giant plant response rating) was 100% and the pest or weed control at 2000 g/ha ([9]; pre-emergence, Preemergence, 2000 g ai/ha, 0 to 100 scale, 0 no effect, 100 complete control, read-out: Foxtail, Giant plant response rating) was 100%.
With `CCc1nn(C(C)(C)C)cc1C(=O)Nc1cc(C(=O)N(CC)CC)ccc1F` [Compound 223] the “Plant response rating, Goosegrass” value [1, 11] was 60, the “Plant response rating, Goosegrass” value [1, 12] was 80 and the “Plant response rating, Goosegrass” value [1, 13] was 80. For the same compound, the “Plant response rating, Goosegrass” value [1, 14] was 100, the “Plant response rating, Cupgrass, Woolly” value [2, 11] was 0 and the “Plant response rating, Cupgrass, Woolly” value [2, 12] was 10. The “Plant response rating, Cupgrass, Woolly” value [2, 14] was 80, the “Plant response rating, Bermudagrass” value ([3]; 62 g ai/ha, preemergence, scale 0 to 100, 0 no effect, 100 complete control) was 80 and the “Plant response rating, Bermudagrass” value [3, 12] was 80. The “Plant response rating, Bermudagrass” value [3, 13] was 100, the “Bermudagrass plant response rating” value [3, 10] was 100 and the “Pigweed plant response rating” value [4, 15] was 50. The “Plant response rating, Pigweed” value [4, 16] was 55, the “Pigweed plant response rating” value [4, 17] was 90 and the “Pigweed plant response rating” value [4, 18] was 95. The “Plant response rating, Pigweed” value [5, 11] was 100, the “Plant response rating, Pigweed” value [5, 12] was 100 and the “Plant response rating, Pigweed” value [5, 13] was 100. The “Plant response rating, Pigweed” value [5, 14] was 100, the “Plant response rating, Crabgrass, Large” value [6, 11] was 100 and the “Plant response rating, Crabgrass, Large” value [6, 12] was 100. For the same compound, the “Plant response rating, Crabgrass, Large” value [6, 13] was 100, the “Plant response rating, Crabgrass, Large” value [6, 14] was 100 and the “Plant response rating, Foxtail, Giant” value [7, 11] was 40. The “Plant response rating, Foxtail, Giant” value [7, 12] was 70, the “Plant response rating, Foxtail, Giant” value [7, 13] was 100 and the “Plant response rating, Foxtail, Giant” value [7, 14] was 100. The “Ducksalad plant response rating” value ([8]; 62 g ai/ha, scale 0 to 100 (0 no effect, 100 complete control)) was 0, the “Ducksalad plant response rating” value ([8]; 125 g ai/ha, scale 0 to 100 (0 no effect, 100 complete control)) was 0 and the “Ducksalad plant response rating” value ([8]; 250 g ai/ha, scale of 0 to 100, 0 is no effect, 100 is complete control) was 25. For the same compound, the “Plant response rating, Ducksalad” value ([8]; 500 g ai/ha, visual rating after 12 to 14 days, scale 0 to 100 (0 no effect, 100 complete control)) was 55, the “Foxtail, Giant plant response rating” value [9, 15] was 10 and the “Plant response rating, Foxtail, Giant” value [9, 16] was 10. The “Foxtail, Giant plant response rating” value [9, 17] was 90 and the “Foxtail, Giant plant response rating” value [9, 18] was 75.
